Values quoted from earlier work, collected in patent US9365837B2, “Peptide inhibitors of protein kinase C” (The Board of Trustees of the Leland Stanford Junior …, priority 2002, dated 2016).

Tested on: Sprague-Dawley rats
Conditions: previously identified active in the assay

EAIVKQ (fragment derived from SEQ ID NO32) [SEQ ID NO:37, positive control εPKC antagonist, excluded from the peptides of the invention]
activity in the capsaicin assay (positive control): active
